{"source": "paper PMC2453235", "about": "“Identification and Rational Redesign of Peptide Ligands to CRIP1, A Novel Biomarker for Cancers” (PLoS Computational Biology, 2008)", "molecules": {"B1": {"name": "unlabeled A1 peptide (peptide)", "peptide": "CLKDNHRSCGGGSK", "modifications": "disulfide 1-9 (inferred)", "notes": "also called original A1 peptide; source: synthetic peptide"}}, "note": "Where a SMILES comes first, the peptide text is derived from it. Bridges are numbered along the chain shown (N, C = ends). Where no end group is shown, it is not given here. The star is where a group is joined. 5FAM = O=C1OC2(c3ccc(O)cc3Oc3cc(O)ccc32)c2ccc(C(=O)*)cc21"}
{"molecular_target": "T1, CRIP1 (Homo sapiens, UniProt P50238)", "T1 construct": "enterokinase cleavage site and vector linker residues (N); made in house; host or cells: E. coli (pHAT10-CRIP1, IPTG induction)", "T1 sequence (P50238 1-77)": "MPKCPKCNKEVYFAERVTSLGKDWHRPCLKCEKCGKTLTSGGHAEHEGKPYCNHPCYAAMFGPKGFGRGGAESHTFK", "assay": "Phage display panning (Ph.D.-C7C library), frequency of enriched sequences", "type": "binding", "details": "4 rounds of panning against enterokinase-truncated CRIP1, 29 phage inserts sequenced", "description": "In order to generate CRIP1 protein that was as similar as possible to endogenous CRIP1, enterokinase cleavage was performed on purified CRIP1. Uncleaved contaminating HIS-tagged CRIP1 as well as HIS-tagged peptides were removed by re-running the digest over the CellThru resin and retaining the flow thru. […] After four rounds of positive selection against enterokinase-truncated CRIP1, 29 phage DNA inserts were sequenced using a 96 gIII primer (5′-^HOCCC TCA TAG TTA GCG TAA CG-3′). Sequencing verified that 18 of the 29 phagotopes were from the cysteine-constrained phage library, Table 1. Many of the peptide sequences contained similar motifs and six sequences occurred in more than one phagotope. The peptides A1 and C5 were identified four times, C1 three times, and A9, B1, and B5 twice. However, even accounting for conserved amino acid substitutions, no clear motif could be identified.\nCRIP1 was digested with enterokinase (Roche Diagnostics, Inc.) to remove the His tag and then was used as bait for 4 rounds of panning with the Ph.D.-C7C Phage Display Peptide Library (New England Biolabs). The nucleotide sequence of the gene III insert was determined by sequencing the phage, and the amino acid sequence of the insert was deduced from the nucleotide sequence, shown in Table 1."}
{"molecule": "APYNTLA (disulfide (positions not given here)) [A6, C7C phage display peptide APYNTLA]", "Frequency (number of phage clones with the sequence)": 1}
{"molecule": "DHRQGSS (disulfide (positions not given here)) [A5, C7C phage display peptide DHRQGSS]", "Frequency (number of phage clones with the sequence)": 1}
{"molecule": "FSTNMKT (disulfide (positions not given here)) [B3, C7C phage display peptide FSTNMKT]", "Frequency (number of phage clones with the sequence)": 1}
{"molecule": "HANFLHM (disulfide) [C2, C7C phage display peptide HANFLHM]", "Frequency (number of phage clones with the sequence)": 1}
{"molecule": "LPAYSTY (disulfide (positions not given here)) [B9, C7C phage display peptide LPAYSTY]", "Frequency (number of phage clones with the sequence)": 1}
{"molecule": "PLFKGMS (disulfide (positions not given here)) [B7, C7C phage display peptide PLFKGMS]", "Frequency (number of phage clones with the sequence)": 1}
{"molecule": "RDSSAHQ (disulfide (positions not given here)) [B10, C7C phage display peptide RDSSAHQ]", "Frequency (number of phage clones with the sequence)": 1}
{"molecule": "RTTGAQT (disulfide (positions not given here)) [B4, C7C phage display peptide RTTGAQT]", "Frequency (number of phage clones with the sequence)": 1}
{"molecule": "SLNTRSQ (disulfide (positions not given here)) [C9, C7C phage display peptide SLNTRSQ]", "Frequency (number of phage clones with the sequence)": 1}
{"molecule": "SPHIIAS (disulfide (positions not given here)) [A8, C7C phage display peptide SPHIIAS]", "Frequency (number of phage clones with the sequence)": 1}
{"molecule": "SVPINDS (disulfide) [A3, C7C phage display peptide SVPINDS]", "Frequency (number of phage clones with the sequence)": 1}
{"molecule": "YDPIWRT (disulfide (positions not given here)) [B2, C7C phage display peptide YDPIWRT]", "Frequency (number of phage clones with the sequence)": 1}
{"molecular_target": "T1, CRIP1", "assay": "ELISA of individual phage clones binding to immobilized CRIP1", "details": "purified chimeric CRIP1 not reacted with enterokinase", "text": "To select clones for further analysis, we used ELISA to determine the relative binding affinities of selected individual phage clones to purified CRIP1 (see Methods and Figure S3). For these studies the purified chimeric CRIP1 was not reacted with enterokinase.\nSupplementary file pcbi.1000138.s003.tif: Figure S3 Relative estimates of peptide affinity for CRIP1. Phage binding against immobilized CRIP-1. (0.38 MB TIF) Click here for additional data file."}
{"molecule": "CC(C)C[C@@H]1NC(=O)[C@@H](N)CSSC[C@@H](C(=O)NCC(=O)NCC(=O)NCC(=O)N[C@@H](CO)C(=O)N[C@@H](CCCCN)C(N)=O)NC(=O)[C@H](CO)NC(=O)[C@H](CCCNC(=N)N)NC(=O)[C@H](Cc2c[nH]cn2)NC(=O)[C@H](CC(N)=O)NC(=O)[C@H](CC(=O)O)NC(=O)[C@H](CCCCN)NC1=O", "note": "[A1] (H-CLKDNHRSCGGGSK-NH2; disulfide 1-9; N-terminus assumed)", "relative binding affinity of phage clone": "higher relative affinity"}
{"molecule": "CC[C@H](C)[C@@H]1NC(=O)[C@@H]2CCCN2C(=O)[C@H](CC(=O)O)NC(=O)[C@H](Cc2ccc(O)cc2)NC(=O)[C@@H](N)CSSC[C@@H](C(=O)NCC(=O)NCC(=O)NCC(=O)N[C@@H](CO)C(=O)N[C@@H](CCCCNC(=O)c2ccc3c(c2)C(=O)OC32c3ccc(O)cc3Oc3cc(O)ccc32)C(N)=O)NC(=O)[C@H]([C@@H](C)O)NC(=O)[C@H](CCCNC(=N)N)NC(=O)[C@H](Cc2c[nH]c3ccccc23)NC1=O", "note": "[B5] (H-CYDPIWRTCGGGSK(5FAM)-NH2; disulfide 1-9; N-terminus assumed)", "relative binding affinity of phage clone": "higher relative affinity"}
{"molecule": "TPRQSPI (disulfide) [C5, C7C phage display peptide TPRQSPI]", "relative binding affinity of phage clone": "lower binding affinity"}
{"molecular_target": "T2, Cysteine-rich intestinal protein 1 (CRIP1), purified protein coated on plates for the peptide binding assays (human, UniProt P50238 1-77)", "T2 construct": "Cysteine-rich intestinal protein 1 (CRIP1), human; coding region of the cDNA, 77 amino acids; also called CRIP1 protein; source: bacteria (pHAT10-CRIP1, IPTG induced), purified (TALON CellThru resin)", "T2 sequence (looked up)": "T1 sequence (P50238 1-77)", "assay": "competitive binding on protein-coated plates (fluorescence read-out); CRIP1 coated on 96-well plates (100 µg/ml in PBS, overnight 4°C); 10 µM FITC-A1M held constant, unlabeled A1 or A1M 0 to 300 µM, 1 h at 37°C; one binding site model", "details": "both partners purified", "units": {"IC50": "nM", "Ki": "nM"}}
{"molecule": "B1", "IC50": 8800}
{"molecule": "CLDGGGKGCGGGSK (disulfide 1-9 (inferred), source: synthetic peptide)", "note": "[unlabeled A1M peptide]", "IC50": 320, "Ki": 67}
